{"source": "paper PMC7791840", "about": "“The R-enantiomer of ketorolac reduces ovarian cancer tumor burden in vivo” (BMC Cancer, 2021)", "origin": "cited, not measured here", "key": {"[1]": {"system": "HEY8 ovarian cancer xenografts", "parameters": "method as in PMID 25595279", "details": "cited from earlier work"}, "[2]": {"parameters": "method as in PMID 8809637", "details": "mice; cited from earlier work"}, "COX-1": {"system": "COX-1", "parameters": "method as in PMID 26558612, PMID 10027870", "details": "cited from earlier work"}, "Cdc42": {"system": "Cdc42", "parameters": "method as in earlier work", "details": "cell-based assays, ovarian tumor cells; ref 23 (R-ketorolac), 27 (S-ketorolac); cited from earlier work"}, "Rac1": {"system": "Rac1", "parameters": "method as in earlier work", "details": "cell-based assays, ovarian tumor cells; ref 23 (R-ketorolac), 27 (S-ketorolac); cited from earlier work"}, "COX-2": {"system": "COX-2", "parameters": "method as in PMID 26558612, PMID 10027870", "details": "cited from earlier work"}}}
{"smiles": "O=P(O)(O)C(O)(Cn1ccnc1)P(=O)(O)O", "note": "[zoledronic acid, Zoledronic acid]", "values": [{"measurement": "Number of tumor nodules", "setting": "[1]", "result": "decreased"}, {"measurement": "Tumor weight", "setting": "[1]", "result": "decreased"}]}
{"smiles": "O=C(c1ccccc1)c1ccc2n1CC[C@@H]2C(=O)O", "note": "[S-ketorolac]", "values": [{"measurement": "Conversion of S-enantiomer to R-enantiomer", "setting": "[2]", "result": "significantly converted to the R-enantiomer in mice"}, {"measurement": "IC50", "setting": "COX-1", "result": 460, "unit": "nM"}, {"measurement": "IC50", "setting": "Cdc42", "result": "> 100000", "unit": "nM"}, {"measurement": "IC50", "setting": "Rac1", "result": "> 100000", "unit": "nM"}, {"measurement": "IC50", "setting": "COX-2", "result": 1460, "unit": "nM"}]}
